Measurements from paper PMC9488896, “Hydroxamic Acid-Modified Peptide Library Provides Insights into the Molecular Basis for the Substrate Selectivity of HDAC Corepressor Complexes” (ACS Chemical Biology, 2022).
Like-named read-outs stand apart in the source and are kept apart here. Values belong to the molecule of their own block, whether it stands above or below them. Residues, ends and D or L forms follow the SMILES beside them. No end group written: not given here.

Legend:
Format in all cases: biochemical
[1] = molecular target: T1, HDAC1/MTA1(aa: 162–546)/RBBP4 core NuRD complex (HMR) (Homo sapiens, UniProt Q09028+Q13330+Q13547); assay: Boc-Lys HDAC inhibition assay; conditions: 50 nM complex, 20 min preincubation rt, 100 μM Boc-(Ac)Lys-AMC, 37 °C 30 min, technical replicates N = 2
T1 construct: made in house; host or cells: HEK293F
Procedure: (§1) Inhibition assays with various peptide inhibitors were performed using a fluorescence-based assay. The inhibitor peptides were initially dissolved in 5% dimethyl sulfoxide (DMSO) at a stock concentration of 25 mM before being further diluted in the HDAC assay buffer (50 mM Tris/HCl, pH 7.5, 150 mM NaCl). Serial dilutions (1:3) of the inhibitor were prepared, starting at a concentration of 500 μM. HDAC complexes were diluted to a final concentration of 50 nM and incubated with the inhibitor for 20 min at rt. The Boc-(Ac)Lys-AMC substrate was added at a final concentration of 100 μM The final volume of the reaction was 50 μL. The reaction was incubated at 37 °C, 150 rpm, for 30 min, before a developer (50 mM Tris, pH 7.5, 100 mM NaCl, 10 mg/mL trypsin) was added. The reaction was incubated with the developer for 10 min before being measured (PerkinElmer, 2030 multilabel reader, VICTOR X5, excitation 335 nm, emission 460 nm). The absorbance of the buffer as the blank control was subtracted from the HDAC activity, and IC50 calculations were performed using the nonlinear regression log(inhibitor) vs response equation Y = bottom + (top – bottom)/(1+10^(X–Log IC50)) in Graphpad Prism 9.

[2] = molecular target: T2, CoREST complex (Homo sapiens, UniProt Q13547+Q9UKL0); assay: Boc-Lys HDAC inhibition assay; conditions: HDAC complexes tables; 50 nM complex, 100 μM Boc-(Ac)Lys-AMC, 37 °C 30 min; technical replicates N = 2
T2 construct: made in house; host or cells: HEK293F
From the text: (§2) Finally, we directed our attention toward assessing how the results from the experiments with HMR would be common to the other known class I HDAC corepressor complexes. RERE, MIER1, CoREST, HMR, MiDAC, Sin3A, and SMRT were expressed and purified, and the concentrations were normalized based on the concentration of HDAC1 or HDAC3 (Figure 4A). We determined the potency of H3(23–29)K27Hd 12 and H4(12–18)K16Hd 16 against RERE, MIER1, CoREST, NuRD, MiDAC, Sin3A, and SMRT (Figure 4B). In addition, we repeated the H3(23–29)K27Hd alanine scan experiment for each of these complexes to assess whether or not the importance of Lys23 for maintaining potency against HMR was replicated across the other complexes (Figure 4C).
as §1

[3] = molecular target: T3, MiDAC complex (Homo sapiens, UniProt Q13547+Q6PJG2+Q9H147); assay: Boc-Lys HDAC inhibition assay; conditions: HDAC complexes tables; 50 nM complex, 100 μM Boc-(Ac)Lys-AMC, 37 °C 30 min; technical replicates N = 2
T3 construct: made in house; host or cells: HEK293F
From the text: as §2, §1

[4] = molecular target: T4, Sin3A complex (Homo sapiens, UniProt Q13547); assay: Boc-Lys HDAC inhibition assay; conditions: HDAC complexes tables; 50 nM complex, 100 μM Boc-(Ac)Lys-AMC, 37 °C 30 min; technical replicates N = 2
T4 construct: made in house; host or cells: HEK293F
From the text: as §2, §1

[5] = molecular target: T5, MIER1 complex (Homo sapiens, UniProt Q13547+Q8N108); assay: Boc-Lys HDAC inhibition assay; conditions: HDAC complexes tables; 50 nM complex, 100 μM Boc-(Ac)Lys-AMC, 37 °C 30 min; technical replicates N = 2
T5 construct: made in house; host or cells: HEK293F
From the text: as §2, §1

[6] = molecular target: T6, SMRT complex (HDAC3) (Homo sapiens, UniProt O15379); assay: Boc-Lys HDAC inhibition assay; conditions: HDAC complexes tables; 50 nM complex, 100 μM Boc-(Ac)Lys-AMC, 37 °C 30 min; technical replicates N = 2
T6 construct: made in house; host or cells: HEK293F
From the text: as §2, §1

[7] = molecular target: T7, RERE complex (Homo sapiens, UniProt Q13547+Q9P2R6); assay: Boc-Lys HDAC inhibition assay; conditions: HDAC complexes tables; 50 nM complex, 100 μM Boc-(Ac)Lys-AMC, 37 °C 30 min; technical replicates N = 2
T7 construct: made in house; host or cells: HEK293F
From the text: as §2, §1

[8] = molecular target: T1, HDAC1/MTA1(aa: 162–546)/RBBP4 core NuRD complex (HMR); assay: Caliper deacetylation assay (rate-of-turnover of substrate peptides); conditions: 125 nM HMR, 2 μM peptide; for Initial Rate of HMR against histone peptides: Rate (% conversion min-1): 50 mM Tris/HCl pH 7.5, 50 mM NaCl, 5% glycerol, linear fit of first 8 min, Caliper EZ Reader II, technical replicates N = 2
Procedure: The acetyl-lysine-containing library (compounds 1–8) was assessed for the initial rate at which they were deacetylated by the HMR complex (Figure 2A).
Reactions (30 μL) contained 125 nM HMR and 2 μM fluorescein-labeled peptides (peptides 1–8) in 50 mM Tris/HCl, pH 7.5, 50 mM NaCl, and 5% glycerol. The deacetylase reaction was recorded over a 30 min period, every 90 s, using a Caliper EZ Reader II System (Caliper Life Sciences, http://www.caliperls.com). The initial rates were calculated using the formula Y = Y-intercept + slope × X during the first 8 min of the reaction using GraphPad Prism 9.

[9] = inhibitor library experiment, fluorescence, read-out: IC50 of HMR against histone peptide library
[10] = alanine scan / H4K12Hd experiments, read-out: IC50 of HMR against H3 K27Hd, H4 K16Hd and H4K12Hd peptides

T1 sequence (Q13547 whole entry, species assumed): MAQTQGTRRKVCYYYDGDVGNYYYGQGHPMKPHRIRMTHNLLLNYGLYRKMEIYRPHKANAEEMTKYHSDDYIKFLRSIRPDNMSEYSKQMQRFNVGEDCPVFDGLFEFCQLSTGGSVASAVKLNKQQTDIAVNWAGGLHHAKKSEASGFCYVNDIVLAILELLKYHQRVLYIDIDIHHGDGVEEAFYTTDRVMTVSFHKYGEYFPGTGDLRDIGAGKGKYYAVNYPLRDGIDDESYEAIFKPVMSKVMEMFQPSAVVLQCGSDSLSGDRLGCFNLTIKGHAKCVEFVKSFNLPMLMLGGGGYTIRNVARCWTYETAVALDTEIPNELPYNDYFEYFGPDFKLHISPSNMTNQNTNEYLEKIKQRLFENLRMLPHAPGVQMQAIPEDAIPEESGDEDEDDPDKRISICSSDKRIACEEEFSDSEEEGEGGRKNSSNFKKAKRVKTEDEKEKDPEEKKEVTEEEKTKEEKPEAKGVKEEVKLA
T1 sequence (Q13330 162-546 partner limits assumed, species assumed): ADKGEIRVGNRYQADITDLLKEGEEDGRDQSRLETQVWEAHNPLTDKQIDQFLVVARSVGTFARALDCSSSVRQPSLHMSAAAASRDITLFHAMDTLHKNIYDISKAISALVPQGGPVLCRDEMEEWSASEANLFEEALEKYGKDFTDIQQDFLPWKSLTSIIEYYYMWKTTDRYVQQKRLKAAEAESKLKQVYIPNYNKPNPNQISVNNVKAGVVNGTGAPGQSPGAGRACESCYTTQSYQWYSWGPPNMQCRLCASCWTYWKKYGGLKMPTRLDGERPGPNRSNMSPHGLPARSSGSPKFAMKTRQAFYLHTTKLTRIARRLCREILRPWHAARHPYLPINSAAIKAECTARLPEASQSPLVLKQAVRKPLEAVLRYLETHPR
T1 sequence (Q09028 whole entry partner, species assumed): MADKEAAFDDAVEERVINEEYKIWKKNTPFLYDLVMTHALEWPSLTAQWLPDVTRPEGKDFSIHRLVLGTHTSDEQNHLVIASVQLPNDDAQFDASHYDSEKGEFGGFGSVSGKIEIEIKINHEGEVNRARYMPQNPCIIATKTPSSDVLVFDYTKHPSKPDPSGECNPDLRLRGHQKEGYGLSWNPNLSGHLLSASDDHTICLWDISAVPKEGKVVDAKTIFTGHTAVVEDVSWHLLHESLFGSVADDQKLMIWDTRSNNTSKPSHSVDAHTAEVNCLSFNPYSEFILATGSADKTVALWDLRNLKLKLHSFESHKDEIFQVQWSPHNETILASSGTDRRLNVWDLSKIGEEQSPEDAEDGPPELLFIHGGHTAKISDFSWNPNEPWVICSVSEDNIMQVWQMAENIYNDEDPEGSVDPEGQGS
T6 sequence (O15379 whole entry, species assumed, one chain of several): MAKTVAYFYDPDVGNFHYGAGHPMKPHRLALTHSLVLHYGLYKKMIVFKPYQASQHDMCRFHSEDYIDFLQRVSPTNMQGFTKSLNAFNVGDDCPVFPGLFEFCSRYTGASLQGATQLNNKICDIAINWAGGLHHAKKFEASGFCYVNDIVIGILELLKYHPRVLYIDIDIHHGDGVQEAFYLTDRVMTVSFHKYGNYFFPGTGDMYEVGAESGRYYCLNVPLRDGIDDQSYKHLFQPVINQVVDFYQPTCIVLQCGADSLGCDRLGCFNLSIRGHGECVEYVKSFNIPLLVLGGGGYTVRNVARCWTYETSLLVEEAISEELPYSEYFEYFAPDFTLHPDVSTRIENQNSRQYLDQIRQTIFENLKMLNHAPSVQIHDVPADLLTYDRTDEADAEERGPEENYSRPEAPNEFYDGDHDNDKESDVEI
T7 sequence (Q13547 whole entry): as the sequence (Q13547 whole entry, species assumed) above
T7 sequence (Q9P2R6 whole entry partner): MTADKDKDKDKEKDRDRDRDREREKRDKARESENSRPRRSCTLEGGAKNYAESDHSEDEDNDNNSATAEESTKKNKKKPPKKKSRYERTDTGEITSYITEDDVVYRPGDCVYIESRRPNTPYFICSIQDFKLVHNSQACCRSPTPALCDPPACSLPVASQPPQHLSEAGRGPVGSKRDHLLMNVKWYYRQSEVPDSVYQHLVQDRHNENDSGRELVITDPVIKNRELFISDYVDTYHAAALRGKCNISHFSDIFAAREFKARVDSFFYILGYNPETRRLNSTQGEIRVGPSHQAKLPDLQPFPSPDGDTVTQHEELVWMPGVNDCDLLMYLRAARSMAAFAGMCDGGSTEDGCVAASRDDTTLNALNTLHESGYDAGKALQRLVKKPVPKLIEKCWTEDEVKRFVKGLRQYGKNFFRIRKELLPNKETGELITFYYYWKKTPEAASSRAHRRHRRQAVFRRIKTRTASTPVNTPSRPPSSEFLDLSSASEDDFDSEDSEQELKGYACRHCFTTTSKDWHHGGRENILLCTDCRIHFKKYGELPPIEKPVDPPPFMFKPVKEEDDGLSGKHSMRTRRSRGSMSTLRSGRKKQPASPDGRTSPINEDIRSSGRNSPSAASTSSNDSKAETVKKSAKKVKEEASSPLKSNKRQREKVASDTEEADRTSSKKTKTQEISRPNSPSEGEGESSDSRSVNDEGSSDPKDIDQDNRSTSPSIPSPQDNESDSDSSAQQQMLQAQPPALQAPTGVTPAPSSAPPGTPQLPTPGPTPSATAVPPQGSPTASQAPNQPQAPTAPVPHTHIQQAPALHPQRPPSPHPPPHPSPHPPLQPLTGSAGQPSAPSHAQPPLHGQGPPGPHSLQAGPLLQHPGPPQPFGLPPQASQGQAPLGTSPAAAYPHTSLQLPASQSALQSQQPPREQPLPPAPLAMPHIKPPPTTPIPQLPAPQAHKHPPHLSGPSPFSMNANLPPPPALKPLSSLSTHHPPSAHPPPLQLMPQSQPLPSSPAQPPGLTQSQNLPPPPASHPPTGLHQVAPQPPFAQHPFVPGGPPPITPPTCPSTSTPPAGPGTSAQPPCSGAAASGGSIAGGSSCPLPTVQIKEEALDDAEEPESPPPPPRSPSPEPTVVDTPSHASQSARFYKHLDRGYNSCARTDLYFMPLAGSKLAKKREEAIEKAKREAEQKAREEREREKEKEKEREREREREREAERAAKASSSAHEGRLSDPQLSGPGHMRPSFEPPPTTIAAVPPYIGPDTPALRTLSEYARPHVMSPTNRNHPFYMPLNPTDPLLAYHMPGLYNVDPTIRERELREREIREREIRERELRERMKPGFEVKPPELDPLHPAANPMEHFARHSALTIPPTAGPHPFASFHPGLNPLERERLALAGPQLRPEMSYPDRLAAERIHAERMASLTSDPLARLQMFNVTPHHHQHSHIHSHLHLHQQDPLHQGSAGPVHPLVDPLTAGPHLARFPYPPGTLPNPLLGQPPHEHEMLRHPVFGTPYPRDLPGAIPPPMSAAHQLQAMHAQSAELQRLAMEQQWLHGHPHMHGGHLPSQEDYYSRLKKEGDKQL
T3 sequence (Q13547 whole entry): as the sequence (Q13547 whole entry, species assumed) above
T3 sequence (Q6PJG2 628-887 partner limits assumed): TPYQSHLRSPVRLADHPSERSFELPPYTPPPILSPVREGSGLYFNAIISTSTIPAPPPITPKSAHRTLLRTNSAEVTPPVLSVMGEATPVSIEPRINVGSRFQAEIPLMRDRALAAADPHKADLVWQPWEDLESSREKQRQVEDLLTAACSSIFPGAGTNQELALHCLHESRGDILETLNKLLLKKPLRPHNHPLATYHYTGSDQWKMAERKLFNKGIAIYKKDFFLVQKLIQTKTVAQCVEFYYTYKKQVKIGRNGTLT
T3 sequence (Q9H147 whole entry partner): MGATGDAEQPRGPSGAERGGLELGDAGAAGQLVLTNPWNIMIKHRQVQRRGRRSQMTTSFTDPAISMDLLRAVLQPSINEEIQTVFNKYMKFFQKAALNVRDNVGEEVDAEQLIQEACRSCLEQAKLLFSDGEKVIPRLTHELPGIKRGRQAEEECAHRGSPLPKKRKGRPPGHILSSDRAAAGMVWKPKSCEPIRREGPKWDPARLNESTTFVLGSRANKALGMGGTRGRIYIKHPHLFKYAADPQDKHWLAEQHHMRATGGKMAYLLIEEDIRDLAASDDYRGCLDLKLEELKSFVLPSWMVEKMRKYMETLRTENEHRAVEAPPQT
T2 sequence (Q13547 whole entry, other chains not shown): as the sequence (Q13547 whole entry, species assumed) above
T2 sequence (Q9UKL0 86-485 partner limits assumed, other chains not shown): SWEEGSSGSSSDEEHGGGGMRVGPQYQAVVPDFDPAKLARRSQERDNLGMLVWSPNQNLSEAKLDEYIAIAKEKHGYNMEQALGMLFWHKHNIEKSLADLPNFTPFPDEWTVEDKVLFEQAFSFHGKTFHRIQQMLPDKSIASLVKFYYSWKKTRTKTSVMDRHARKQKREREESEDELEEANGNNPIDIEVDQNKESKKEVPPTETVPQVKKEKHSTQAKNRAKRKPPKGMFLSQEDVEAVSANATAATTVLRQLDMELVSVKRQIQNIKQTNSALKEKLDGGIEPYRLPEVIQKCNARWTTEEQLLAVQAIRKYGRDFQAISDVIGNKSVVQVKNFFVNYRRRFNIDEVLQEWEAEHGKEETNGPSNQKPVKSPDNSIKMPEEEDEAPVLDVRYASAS
T5 sequence (Q13547 whole entry): as the sequence (Q13547 whole entry, species assumed) above
T5 sequence (Q8N108 whole entry partner): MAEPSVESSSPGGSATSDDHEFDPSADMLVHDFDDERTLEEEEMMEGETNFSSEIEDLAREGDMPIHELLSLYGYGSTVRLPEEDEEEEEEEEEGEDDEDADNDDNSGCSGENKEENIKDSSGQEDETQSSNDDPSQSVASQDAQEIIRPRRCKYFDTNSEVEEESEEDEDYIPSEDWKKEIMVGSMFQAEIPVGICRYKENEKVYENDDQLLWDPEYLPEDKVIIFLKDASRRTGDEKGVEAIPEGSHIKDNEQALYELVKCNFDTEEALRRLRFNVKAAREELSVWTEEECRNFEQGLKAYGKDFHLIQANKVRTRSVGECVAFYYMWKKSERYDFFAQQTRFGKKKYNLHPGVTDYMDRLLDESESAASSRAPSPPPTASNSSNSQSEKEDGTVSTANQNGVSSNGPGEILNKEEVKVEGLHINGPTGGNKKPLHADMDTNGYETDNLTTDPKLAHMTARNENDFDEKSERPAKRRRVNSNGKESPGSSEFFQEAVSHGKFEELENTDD

IC50 [1, 9]: 333 nM
Molecule: CC(=O)N[C@@H](C)C(=O)N[C@@H](CCCNC(=N)N)C(=O)N[C@H](C(=O)N[C@@H](CCCCCC(=O)NO)C(=O)N[C@@H](CCC(N)=O)C(=O)N[C@H](C(=O)N[C@@H](C)C(N)=O)[C@@H](C)O)[C@@H](C)O [compound 9, H3 (1-7) K4Hd] (HELM PEPTIDE1{[ac].A.R.T.[O=C([C@H](CCCCCC(=O)[*:3])N[*:1])[*:2]].Q.T.A.[am]}|CHEM1{[ON[*:1]]}$PEPTIDE1,CHEM1,5:R3-1:R1$$$V2.0)

IC50 [1, 9]: 886 nM
Molecule: CC(=O)N[C@H](C(=O)NCC(=O)NCC(=O)N[C@@H](CCCCCC(=O)NO)C(=O)N[C@@H](C)C(=O)N1CCC[C@H]1C(=O)N[C@@H](CCCNC(=N)N)C(N)=O)[C@@H](C)O [compound 11, H3 (11-17) K14Hd] (HELM PEPTIDE1{[ac].T.G.G.[O=C([C@H](CCCCCC(=O)[*:3])N[*:1])[*:2]].A.P.R.[am]}|CHEM1{[ON[*:1]]}$PEPTIDE1,CHEM1,5:R3-1:R1$$$V2.0)

IC50 [1, 9]: 431 nM
Molecule: CC(=O)NCC(=O)N[C@@H](CCCCN)C(=O)NCC(=O)NCC(=O)N[C@@H](CCCCCC(=O)NO)C(=O)NCC(=O)N[C@@H](CC(C)C)C(N)=O [compound 14, H4 (4-10) K8Hd] (HELM PEPTIDE1{[ac].G.K.G.G.[O=C([C@H](CCCCCC(=O)[*:3])N[*:1])[*:2]].G.L.[am]}|CHEM1{[ON[*:1]]}$PEPTIDE1,CHEM1,6:R3-1:R1$$$V2.0)

IC50 [1, 10]: 429 nM
Molecule: CC(=O)N[C@@H](CCCCN)C(=O)NCC(=O)NCC(=O)N[C@@H](C)C(=O)N[C@@H](CCCCCC(=O)NO)C(=O)N[C@@H](C)C(=O)N[C@@H](Cc1c[nH]cn1)C(N)=O [compound 25, H4 (12-18) K16Hd R17A] (HELM PEPTIDE1{[ac].K.G.G.A.[O=C([C@H](CCCCCC(=O)[*:3])N[*:1])[*:2]].A.H.[am]}|CHEM1{[ON[*:1]]}$PEPTIDE1,CHEM1,6:R3-1:R1$$$V2.0)

Initial Rate of HMR against histone peptides: Rate (% conversion min-1) [8]: 0.40 +/- 0.013 % conversion min-1
Molecule: H3(6–12)K9Ac (TARK(Ac)STG-NH2; UniProt P68431 7-13, looked up, fragment) [compound 2, acetyl-lysine-containing histone H3 tail substrate peptide, C-terminal amide]

Initial Rate of HMR against histone peptides: Rate (% conversion min-1) [8]: 0.10 +/- 0.027 % conversion min-1
Molecule: H3(11–17)K14Ac (TGGK(Ac)APR-NH2; UniProt P68431 12-18, looked up, fragment) [compound 3, acetyl-lysine-containing histone H3 tail substrate peptide, C-terminal amide]

Initial Rate of HMR against histone peptides: Rate (% conversion min-1) [8]: 0.32 +/-0.065 % conversion min-1
Molecule: H4(1–8)K5Ac [compound 5]

Initial Rate of HMR against histone peptides: Rate (% conversion min-1) [8]: 0.03 +/-0.020 % conversion min-1 | Km ([8]; 30 min time course, table of initial rates): Unstable
Molecule: H4(9–15)K12Ac (GLGK(Ac)GGA-NH2; UniProt P62805 10-16, looked up, fragment) [compound 7, acetyl-lysine-containing histone H4 tail substrate peptide, C-terminal amide]

Second part, the molecule before the results:

Molecule: CC(=O)N[C@@H](CO)C(=O)NCC(=O)N[C@@H](CCCNC(=N)N)C(=O)NCC(=O)N[C@@H](CCCCCC(=O)NO)C(=O)NCC(=O)NCC(=O)N[C@@H](CCCCN)C(N)=O [compound 13, H4 (1-8) K5Hd] (HELM PEPTIDE1{[ac].S.G.R.G.[O=C([C@H](CCCCCC(=O)[*:3])N[*:1])[*:2]].G.G.K.[am]}|CHEM1{[ON[*:1]]}$PEPTIDE1,CHEM1,6:R3-1:R1$$$V2.0)
IC50 [1, 9]: 633 nM

Molecule: CC(=O)N[C@@H](C)C(=O)N[C@@H](C)C(=O)N[C@@H](C)C(=O)N[C@@H](CCCNC(=N)N)C(=O)N[C@@H](CCCCCC(=O)NO)C(=O)N[C@@H](CO)C(=O)N[C@@H](C)C(N)=O [compound 21, H3(23–29)K23A K27Hd] (HELM PEPTIDE1{[ac].A.A.A.R.[O=C([C@H](CCCCCC(=O)[*:3])N[*:1])[*:2]].S.A.[am]}|CHEM1{[ON[*:1]]}$PEPTIDE1,CHEM1,6:R3-1:R1$$$V2.0)
IC50 [1, 10]: 26200 nM | IC50 [2]: 18300 nM | IC50 [3]: 18100 nM | IC50 [4]: 71600 nM | IC50 [5]: 20100 nM | IC50 [6]: 17400 nM | IC50 [7]: 28700 nM

Molecule: CC(=O)N[C@@H](CCCCN)C(=O)N[C@@H](C)C(=O)N[C@@H](C)C(=O)N[C@@H](C)C(=O)N[C@@H](CCCCCC(=O)NO)C(=O)N[C@@H](CO)C(=O)N[C@@H](C)C(N)=O [compound 22, H3(23–29)R26A K27Hd] (HELM PEPTIDE1{[ac].K.A.A.A.[O=C([C@H](CCCCCC(=O)[*:3])N[*:1])[*:2]].S.A.[am]}|CHEM1{[ON[*:1]]}$PEPTIDE1,CHEM1,6:R3-1:R1$$$V2.0)
IC50 [1, 10]: 172 nM | IC50 [2]: 287 nM | IC50 [3]: 203 nM | IC50 [5]: 334 nM | IC50 [6]: 110 nM | IC50 [7]: 464 nM

Molecule: CC(=O)N[C@@H](C)C(=O)NCC(=O)NCC(=O)N[C@@H](C)C(=O)N[C@@H](CCCCCC(=O)NO)C(=O)N[C@@H](CCCNC(=N)N)C(=O)N[C@@H](Cc1c[nH]cn1)C(N)=O [compound 24, H4 (12-18) K16Hd K12A] (HELM PEPTIDE1{[ac].A.G.G.A.[O=C([C@H](CCCCCC(=O)[*:3])N[*:1])[*:2]].R.H.[am]}|CHEM1{[ON[*:1]]}$PEPTIDE1,CHEM1,6:R3-1:R1$$$V2.0)
IC50 [1, 10]: 3250 nM

Molecule: CC(=O)N[C@@H](CCCCN)C(=O)NCC(=O)NCC(=O)N[C@@H](C)C(=O)N[C@@H](CCCCCC(=O)NO)C(=O)N[C@@H](CCCNC(=N)N)C(=O)N[C@@H](C)C(N)=O [compound 26, H4 (12-18) K16Hd H18A] (HELM PEPTIDE1{[ac].K.G.G.A.[O=C([C@H](CCCCCC(=O)[*:3])N[*:1])[*:2]].R.A.[am]}|CHEM1{[ON[*:1]]}$PEPTIDE1,CHEM1,6:R3-1:R1$$$V2.0)
IC50 [1, 10]: 1150 nM

Molecule: H3(1–7)K4Ac (ARTK(Ac)QTA-NH2; UniProt P68431 2-8, looked up, fragment) [compound 1, acetyl-lysine-containing histone H3 tail substrate peptide, C-terminal amide]
Initial Rate of HMR against histone peptides: Rate (% conversion min-1) [8]: 0.18 +/- 0.009 % conversion min-1

Molecule: H3(23–29)K27Ac (KAARK(Ac)SA-NH2; UniProt P68431 24-30, looked up, fragment) [compound 4, acetyl-lysine-containing histone H3 tail substrate peptide, C-terminal amide]
Initial Rate of HMR against histone peptides: Rate (% conversion min-1) [8]: 0.79 +/-0.075 % conversion min-1

Molecule: H4(4–10)K8Ac (GKGGK(Ac)GL-NH2; UniProt P62805 5-11, looked up, fragment) [compound 6, acetyl-lysine-containing histone H4 tail substrate peptide, C-terminal amide]
Initial Rate of HMR against histone peptides: Rate (% conversion min-1) [8]: 0.16 +/-0.016 % conversion min-1

Molecule: H4(12–18)K16Ac (KGGAK(Ac)RH-NH2; UniProt P62805 13-19, looked up, fragment) [compound 8, acetyl-lysine-containing histone H4 tail substrate peptide, C-terminal amide]
Initial Rate of HMR against histone peptides: Rate (% conversion min-1) [8]: 1.08 +/-0.024 % conversion min-1
